Each compound was assayed against glutaminyl cyclase (QC) (Homo sapiens, UniProt Q16769) (assay: QC inhibitor assay (fluorometric/spectrophotometric QC activity assays with inhibitory compound added)).
glutaminyl cyclase (QC), sequence (Q16769 29-361): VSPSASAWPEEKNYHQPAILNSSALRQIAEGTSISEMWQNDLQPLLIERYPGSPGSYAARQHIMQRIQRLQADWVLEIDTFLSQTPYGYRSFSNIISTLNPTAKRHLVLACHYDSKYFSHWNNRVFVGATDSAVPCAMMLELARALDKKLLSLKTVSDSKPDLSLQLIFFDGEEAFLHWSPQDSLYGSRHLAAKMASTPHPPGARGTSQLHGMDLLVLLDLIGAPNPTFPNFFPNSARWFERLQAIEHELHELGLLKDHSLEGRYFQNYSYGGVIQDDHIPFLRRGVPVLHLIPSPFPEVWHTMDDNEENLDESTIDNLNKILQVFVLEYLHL
Method: All measurements were performed with a BioAssay Reader HTS-7000Plus for microplates (Perkin Elmer) at 30° C. QC activity was evaluated fluorometrically using H-Gln-βNA. The samples consisted of 0.2 mM fluorogenic substrate, 0.25 U pyroglutamyl aminopeptidase (Unizyme, Hørsholm, Denmark) in 0.2 M Tris/HCl, pH 8.0 containing 20 mM EDTA and an appropriately diluted aliquot of QC in a final volume of 250 μl. Excitation/emission wavelengths were 320/410 nm. The assay reactions were initiated by addition of glutaminyl cyclase. QC activity was determined from a standard curve of β-naphthylamine under assay conditions. One unit is defined as the amount of QC catalyzing the formation of 1 μmol pGlu-MNA from H-Gln-βNA per minute under the described conditions.
In a second fluorometric assay, QC was activity determined using H-Gln-AMC as substrate. Reactions were carried out at 30° C. utilizing the NOVOStar reader for microplates (BMG labtechnologies). The samples consisted of varying concentrations of the fluorogenic substrate, 0.1 U pyroglutamyl aminopeptidase (Qiagen) in 0.05 M Tris/HCl, pH 8.0 containing 5 mM EDTA and an appropriately diluted aliquot of QC in a final volume of 250 μl. Excitation/emission wavelengths were 380/460 nm. The assay reactions were initiated by addition of glutaminyl cyclase. […] The kinetic data were evaluated using GraFit sofware.
This novel assay was used to determine the kinetic parameters for most of the QC substrates. […] Samples consisted of the respective QC substrate, 0.3 mM NADH, 14 mM α-Ketoglutaric acid and 30 U/ml glutamate dehydrogenase in a final volume of 250 μl.
The initial velocities were evaluated and the enzymatic activity was determined from a standard curve of ammonia under assay conditions. All samples were measured at 30° C., using either the [sequence]luor Plus or the Sunrise (both from TECAN) reader for microplates. Kinetic data was evaluated using GraFit software.
For inhibitor testing, the sample composition was the same as described above, except of the putative inhibitory compound added. For a rapid test of QC-inhibition, samples contained 4 mM of the respective inhibitor and a substrate concentration at 1 KM. For detailed investigations of the inhibition and determination of Ki-values, influence of the inhibitor on the auxiliary enzymes was investigated first. […] The inhibitory constant was evaluated by fitting the set of progress curves to the general equation for competitive inhibition using GraFit software.

Question: What does the source list for `Cc1cn(CCCN/C(=N/C#N)Nc2ccc3nsnc3c2)cn1` [Example 24, (benzo[c][1,2,5]thiadiazol-6-yl)-2-cyano-3-(3-(4-methyl-1H-imidazol-1-yl)propyl)guanidine]?
Answer: IC50: 12200 nM; Ki: 2210 nM

Question: With `Cc1cc(C)c(N/C(=N/C#N)NCCCn2cnc(C)c2)c(C)c1` [Example 20, 2-cyano(mesityl)-3-(3-(4-methyl-1H-imidazol-1-yl)propyl)guanidine] as the compound, how does the IC50 read?
Answer: 8500 nM

Question: And the Ki?
Answer: 1280 nM

Question: Which IC50 does the source give for `COc1cc(N/C(=N/C#N)NCCCn2cncc2C)cc(OC)c1` [Example 16, 2-cyano(3,5-dimethoxyphenyl)-3-(3-(5-methyl-1H-imidazol-1-yl)propyl)guanidine] here?
Answer: 726 nM

Question: What about the Ki of the same compound?
Answer: 125 nM

Question: Which results are given for `Cc1cn(CCCN/C(=N/C#N)Nc2ccc(Cl)c(Cl)c2)cn1` [Example 27, (3,4-dichlorophenyl)-2-cyano-3-(3-(4-methyl-1H-imidazol-1-yl)propyl)guanidine]?
Answer: IC50: 17100 nM; Ki: 2600 nM

Question: How did the IC50 turn out when `Cc1cncn1CCCN/C(=N\C#N)Nc1ccc2ccccc2c1` [Example 10, (3-(5-methyl-1H-imidazol-1-yl)propyl)-2-cyano-3-(naphthalen-2-yl)guanidine] was run?
Answer: 1090 nM

Question: And the Ki?
Answer: 94 nM

Question: How did the IC50 turn out when `Cc1cn(CCCN/C(=N\C#N)Nc2cccc3ccccc23)cn1` [Example 23, 2-cyano(3-(4-methyl-1H-imidazol-1-yl)propyl)-3-(naphthalen-1-yl)guanidine] was run?
Answer: 13800 nM

Question: And the Ki?
Answer: 1690 nM

Question: Which IC50 does the source give for `CCOc1ccc(N/C(=N\C#N)NCCCn2cncc2C)cc1` [Example 6, 2-cyano(4-ethoxyphenyl)-3-(3-(5-methyl-1H-imidazol-1-yl)propyl)guanidine] here?
Answer: 1090 nM

Question: What about the Ki of the same compound?
Answer: 91 nM

Question: `Cc1cn(CCCN/C(=N/C#N)Nc2ccc3ccccc3c2)cn1` [Example 30, 2-cyano(3-(4-methyl-1H-imidazol-1-yl)propyl)-3-(naphthalen-2-yl)guanidine] was tested. Which IC50 did it give?
Answer: 12400 nM

Question: What about the Ki of the same compound?
Answer: 1870 nM

Question: With `CCc1ccc(N/C(=N/C#N)NCCCn2cnc(C)c2)cc1` [Example 22, 2-cyano(4-ethylphenyl)-3-(3-(4-methyl-1H-imidazol-1-yl)propyl)guanidine] as the compound, how does the IC50 read?
Answer: 13900 nM

Question: What about the Ki of the same compound?
Answer: 2370 nM

Question: `Cc1cn(CCCN/C(=N/C#N)Nc2ccc(C#N)cc2)cn1` [Example 26, 2-cyano(4-cyanophenyl)-3-(3-(4-methyl-1H-imidazol-1-yl)propyl)guanidine] was tested. Which IC50 did it give?
Answer: 30100 nM

Question: What does the source list for `Cc1cn(CCCN/C(=N/C#N)Nc2ccc(-c3ccccc3)cc2)cn1` [Example 29, 2-cyano-1-[3-(4-methyl-1H-imidazol-1-yl)propyl]-4-phenylbenzene-1-guanidine]?
Answer: IC50: 10400 nM; Ki: 1580 nM

Question: Which results are given for `COc1ccc(N/C(=N\C#N)NCCCn2cnc(C)c2)cc1` [Example 28, 2-cyano(4-methoxyphenyl)-3-(3-(4-methyl-1H-imidazol-1-yl)propyl)guanidine]?
Answer: IC50: 14400 nM; Ki: 2030 nM

Question: What does the source list for `Cc1cn(CCCN/C(=N\C#N)Nc2ccc(C(C)C)cc2)cn1` [Example 21, 2-cyano(4-isopropylphenyl)-3-(3-(4-methyl-1H-imidazol-1-yl)propyl)guanidine]?
Answer: IC50: 14900 nM; Ki: 2310 nM

Question: What does the source list for `Cc1cncn1CCCN/C(=N/C#N)Nc1ccc(C#N)cc1` [Example 4, 2-cyano(4-cyanophenyl)-3-(3-(5-methyl-1H-imidazol-1-yl)propyl)guanidine]?
Answer: IC50: 1050 nM; Ki: 186 nM

Question: Which results are given for `Cc1cncn1CCCN/C(=N\C#N)Nc1ccc(C(C)C)cc1` [Example 2]?
Answer: IC50: 550 nM; Ki: 91 nM

Question: What does the source list for `CCc1ccc(N/C(=N/C#N)NCCCn2cncc2C)cc1` [Example 1, 2-cyano(4-ethylphenyl)-3-(3-(5-methyl-1H-imidazol-1-yl)propyl)guanidine]?
Answer: IC50: 620 nM; Ki: 170 nM

Question: What does the source list for `Cc1cncn1CCCN/C(=N\C#N)Nc1ccc2c(c1)OCO2` [Example 14, (benzo[d][1,3]dioxol-6-yl)-2-cyano-3-(3-(5-methyl-1H-imidazol-1-yl)propyl)guanidine]?
Answer: IC50: 590 nM; Ki: 110 nM

Question: Which results are given for `CCOc1ccc(N/C(=N\C#N)NCCCn2cnc(C)c2)cc1` [Example 17, 2-cyano(4-ethoxyphenyl)-3-(3-(4-methyl-1H-imidazol-1-yl)propyl)guanidine]?
Answer: IC50: 5690 nM; Ki: 1330 nM

Question: `Cc1cncn1CCCN/C(=N\C#N)Nc1ccc2nsnc2c1` [Example 12, (3-(5-methyl-1H-imidazol-1-yl)propyl)-3-(benzo[c][1,2,5]thiadiazol-6-yl)-2-cyanoguanidine] was tested. Which IC50 did it give?
Answer: 1340 nM

Question: What about the Ki of the same compound?
Answer: 132 nM

Question: How did the IC50 turn out when `COc1cc(N/C(=N\C#N)NCCCn2cnc(C)c2)cc(OC)c1` [Example 18, 2-cyano(3,5-dimethoxyphenyl)-3-(3-(4-methyl-1H-imidazol-1-yl)propyl)guanidine] was run?
Answer: 12300 nM

Question: With `Cc1cncn1CCCN/C(=N\C#N)Nc1cccc2ccccc12` [Example 11, (3-(5-methyl-1H-imidazol-1-yl)propyl)-2-cyano-3-(naphthalen-1-yl)guanidine] as the compound, how does the IC50 read?
Answer: 610 nM

Question: What about the Ki of the same compound?
Answer: 103 nM

Question: For `Cc1cc(C)c(N/C(=N/C#N)NCCCn2cncc2C)c(C)c1` [Example 8, (3-(5-methyl-1H-imidazol-1-yl)propyl)-2-cyano-3-mesitylguanidine], which IC50 is on record?
Answer: 624 nM

Question: And the Ki?
Answer: 106 nM

Question: How did the IC50 turn out when `COc1ccc(N/C(=N/C#N)NCCCn2cncc2C)cc1` [Example 15, 2-cyano(4-methoxyphenyl)-3-(3-(5-methyl-1H-imidazol-1-yl)propyl)guanidine] was run?
Answer: 790 nM

Question: What about the Ki of the same compound?
Answer: 74 nM

— US8227498B2, “Inhibitors of glutaminyl cyclase” (Probiodrug AG, priority 2007, dated 2012)
